Key:
[1] = rabbit, in vivo
Protocol: After diabetes induction, the rabbits were placed into 5 groups (n = 6) randomly. The first group was orally administered with ground Ins-BA hydrogel (10 IU/kg) by an oral gavage needle with 5 mL of water to ensure complete dose administration. The second group was given orally the ground Ins-Mmt-BA hydrogel NC (10 IU/kg). The third group, acting as a positive control, was subcutaneously (SC) injected with standard Humulin-R® insulin (5 IU/kg). The fourth group was orally administered with insulin solution (10 IU/kg). The fifth group, acting as a negative control was administered with blank hydrogel. Blood samples were taken at specified intervals (0, 1, 2, 3, 4, 6, 8, 10, 12, 16, 20, 22 and 24 h) from the jugular vein and collected in EDTA containing sample collection tubes. The blood samples were then centrifuged at 3500 rpm for 15 min and separated plasma samples were stored at –20 °C for further detection of insulin by the HPLC method. At the same intervals, blood samples were also checked for blood glucose levels by a glucometer for observing the pharmacodynamic effect of the administered dosage forms [8].
For pharmacokinetic evaluation, a previously developed HPLC method for insulin detection in plasma was used with slight modifications [37]. The HPLC system (Hitachi, Tokyo, Japan) comprising a Gilson delivery pump with a 6-valved sample injection port fitted with a 20 µL sample loop, A UV-visible detector, thermostat column and chromato-integrator were used for sample analysis. The RP-C18 (150 × 4.60 mm ID, 5 µm) analytical column (Phenomenex, Torrance, CA, USA) was used. The mobile phase was prepared by 0.2 M Na2SO4 solution with pH adjusted to 2.3 with orthophosphoric acid mixed with acetonitrile (74:26) and filtered through 0.5 µm membrane filters and sonicated for 10 min to remove dissolved gas bubbles. The stock solution of insulin at 140 µg/mL strength was made in PBS. The serial dilutions of insulin solution (3.5 µg/mL to 140 µg/mL) after filtering through a 0.2 µm membrane filter were injected into a chromatographic column to find the linearity curve to develop a method for insulin detection. The linearity curve with the same serial dilutions of insulin in plasma was also determined. For sample preparation from collected plasma, 200 µL of thawed plasma (collected at different intervals) was mixed with 800 µL of n-hexane:dichloromethane (1:1). The mixture was centrifuged for 10 min at 3500 rpm (Hitachi Zentrifugen EBA 20, Hitachi Ltd., Tokyo, Japan). The supernatant with extracted insulin was used after filtering through a 0.22 µm membrane filter (Sartorius, Göttingen, Germany) for injection into the HPLC system. […]

[2] = test system: diabetic male albino rabbits; experiment: In vivo pharmacodynamics: blood glucose level in alloxan-induced diabetic rabbits; set-up: species or system rabbit; details: for Blood glucose level (% of initial, % BGL) at maximum decrease: n = 6, oral 10 IU/kg or SC 5 IU/kg, SC standard within first 3 h, Ins-BA hydrogel at 8 h, Ins-Mmt-BA hydrogel NC at 20 h
Protocol: A crossover study was designed to evaluate the insulin intestinal absorption and its release pattern over time from the developed BA hydrogels versus Ins-Mmt-BA hydrogel NCs. For this purpose, under the approval of IREC vide notification number IREC-2020-22, strictly following OECD guidelines, a total of 30 healthy male albino rabbits (≥2 kg weight) were taken. All animals were exposed to 12 h light and darkness cycles for 7 days to acclimatize with ambient atmosphere. For diabetes induction, all rabbits were administered alloxan monohydrate injection (Sigma-Aldrich, Germany) in a single intraperitoneal dose of 150 mg/kg. A 5% glucose solution was administered ad libitum for 24 h to avoid alloxan-induced hypoglycemia. To confirm diabetes induction all, animals’ blood was withdrawn daily from the ear marginal vein for checking blood glucose levels with the help of a glucometer and glucose strips (ACCU-CHEK®, Roche, Basel, Switzerland) for 10 days. Rabbits displaying fasting blood glucose levels higher than 150 mg/dL were considered as diabetic.

[3] = cited from earlier work
From the text: Humulin® R U-100 (containing human insulin with the strength 100 units/mL) is a sterile, colourless and aqueous solution formulation. It is a short-acting polypeptide hormone produced by an Escherichia coli strain obtained by using recombinant DNA technology. Firstly, it controls blood sugar by inhibiting hepatic glucose production, and secondly, it stimulates glucose uptake from peripheral skeletal muscles and fat cells. When administered subcutaneously (SC), it starts showing therapeutic response within 30 min and its effect lasts up to 8h, with the dose in the range of 0.05–0.4 units/kg. W ...

[4] = intravenous, dose 0.1–0.2 units/kg
[5] = subcutaneous, dose 0.05–0.4 units/kg

Substance	Cl [1]	Vd [1]	t1/2 [1]	tmax [1]	Blood glucose level (% of initial, % BGL) at 8 h ([2]; n = 6, SC 5 IU/kg, 8 h interval)	Blood glucose level (% of initial, % BGL) at maximum decrease [2]	Duration of effect after IV administration [3, 4]	Start of pharmacologic effect after IV administration [3, 4]	Duration of effect after SC administration [3, 5]	Start of therapeutic response after SC administration [3, 5]
SC insulin standard: standard Humulin-R human insulin injection, 100 IU/mL, given subcutaneously	13.361 mL/h	67.326 mL	3.493 h	3 h	59.67%	13.55%	up to 4 h	10–15 min	up to 8 h	≤ 30 min
oral insulin solution: insulin solution administered orally (10 IU/kg)						no significant decrease in % BGL				
